How the values were obtained:
bedstraw = assay: Test B pre/postemergence bedstraw; type: in vivo, Galium aparine
Procedure, shortened: (§1)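 Test chemicals in a non-phytotoxic solvent mixture with surfactant were sprayed preemergence onto planted seeds and postemergence onto plants 2 to 18 cm tall (1- to 4-leaf stage). After twelve to sixteen days in a greenhouse, injury was visually rated against untreated controls from 0 (no effect) to 10 (complete control).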

surinam grass = assay: Test B pre/postemergence surinam grass; type: in vivo, Brachiaria decumbens
Procedure, shortened: as §1

cocklebur = assay: Test B pre/postemergence cocklebur; type: in vivo, Xanthium strumarium
Procedure, shortened: as §1

corn = assay: Test B pre/postemergence corn; type: in vivo, Zea mays
Procedure, shortened: as §1

giant foxtail = assay: Test B pre/postemergence giant foxtail; type: in vivo, Setaria faberii
Procedure, shortened: as §1

pigweed = assay: Test B pre/postemergence pigweed; type: in vivo, Amaranthus retroflexus
Procedure, shortened: as §1

rape = assay: Test B pre/postemergence rape; type: in vivo, Brassica napus
Procedure, shortened: as §1

soybean = assay: Test B pre/postemergence soybean; type: in vivo, Glycine max
Procedure, shortened: as §1

sugar beet = assay: Test B pre/postemergence sugar beet; type: in vivo, Beta vulgaris
Procedure, shortened: as §1

velvetleaf = assay: Test B pre/postemergence velvetleaf; type: in vivo, Abutilon theophrasti
Procedure, shortened: as §1

wheat = assay: Test B pre/postemergence wheat; type: in vivo, Triticum aestivum
Procedure, shortened: as §1

wild oat = assay: Test B pre/postemergence wild oat; type: in vivo, Avena fatua
Procedure, shortened: as §1

purple nutsedge = assay: Test B pre/postemergence purple nutsedge; type: in vivo, Cyperus rotundus
Procedure, shortened: as §1

rice = assay: Test B flood test rice; type: in vivo, Oryza sativa
Procedure, shortened: (§2)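 Flood test on plants grown to the 2-leaf stage; treated plants kept in greenhouse twelve to sixteen days, then visually rated against controls on a 0 (no effect) to 10 (complete control) scale.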

smallflower flatsedge = assay: Test B flood test smallflower flatsedge; type: in vivo, Cyperus difformis
Procedure, shortened: as §2

duck salad = assay: Test B flood test duck salad; type: in vivo, Heteranthera limosa
Procedure, shortened: as §2

[1] = Postemergence, Rate 125 g/ha, scale of 0 to 10 where 0 is no effect and 10 is complete control
[2] = Preemergence, Rate 62 g/ha, scale 0 to 10 (0 no effect, 10 complete control)
[3] = Preemergence, Rate 125 g/ha, 0 is no effect, 10 is complete control
[4] = Preemergence, Rate 250 g/ha, scale 0 to 10, 0 is no effect, 10 is complete control
[5] = Preemergence, Rate 500 g/ha, scale 0 to 10 (0 no effect, 10 complete control)
[6] = Rate 62 g/ha, Postemergence, scale of 0 to 10 where 0 is no effect and 10 is complete control
[7] = Rate 250 g/ha, Postemergence, scale 0 to 10, 0 is no effect, 10 is complete control
[8] = Rate 500 g/ha, Postemergence, scale 0 to 10
[9] = Postemergence (flood test species), Rate 125 g/ha, scale of 0 to 10 where 0 is no effect and 10 is complete control
[10] = Rate 250 g/ha, Postemergence (flood test), scale 0 to 10, 0 is no effect, 10 is complete control
[11] = Rate 500 g/ha, listed under Postemergence (flood test species), scale 0 to 10

CCOC(=O)Cn1c(=O)on(C(=O)N(c2ccc(F)cc2)C(C)C)c1=O [Compound 128]
0: Bedstraw plant response rating (bedstraw; [1]) | Bedstraw plant response rating (bedstraw; [2]) | Bedstraw plant response rating (0 to 10 scale) (bedstraw; [3]) | Bedstraw plant response rating (bedstraw; [4]) | Bedstraw plant response rating (bedstraw; [5]) | Bedstraw plant response rating (bedstraw; [6]) | Plant response rating, Bedstraw (bedstraw; [7]) | Bedstraw plant response rating (bedstraw; Rate 500 g/ha, Postemergence, scale 0 to 10, 0 no effect, 10 complete control) | B. signalgrass plant response rating (surinam grass; [1]) | B. signalgrass plant response rating (surinam grass; [2]) | B. signalgrass plant response rating (0 to 10 scale) (surinam grass; [3]) | B. signalgrass plant response rating (surinam grass; [4]) | B. signalgrass plant response rating (surinam grass; [5]) | B. signalgrass plant response rating (surinam grass; [6]) | Plant response rating, B. signalgrass (surinam grass; [7]) | B. signalgrass plant response rating (surinam grass; Rate 500 g/ha, Postemergence, scale of 0 to 10 where 0 is no effect and 10 is complete control) | Cocklebur plant response rating (cocklebur; [1]) | Cocklebur plant response rating (cocklebur; [2]) | Cocklebur plant response rating (0 to 10 scale) (cocklebur; [3]) | Cocklebur plant response rating (cocklebur; [4]) | Cocklebur plant response rating (cocklebur; [5]) | Cocklebur plant response rating (cocklebur; [6]) | Plant response rating, Cocklebur (cocklebur; [7]) | Cocklebur plant response rating (cocklebur; [8]) | Corn plant response rating (corn; [1]) | Corn plant response rating (corn; [2]) | Corn plant response rating (0 to 10 scale) (corn; [3]) | Corn plant response rating (corn; [4]) | Corn plant response rating (corn; [5]) | Corn plant response rating (corn; [6]) | Plant response rating, Corn (corn; [7]) | Corn plant response rating (corn; [8]) | Giant foxtail plant response rating (giant foxtail; [1]) | Giant foxtail plant response rating (giant foxtail; [2]) | Giant foxtail plant response rating (0 to 10 scale) (giant foxtail; [3]) | Giant foxtail plant response rating (giant foxtail; [4]) | Giant foxtail plant response rating (giant foxtail; [6]) | Plant response rating, Giant foxtail (giant foxtail; [7]) | Giant foxtail plant response rating (giant foxtail; [8]) | Redroot pigweed plant response rating (pigweed; [1]) | Redroot pigweed plant response rating (pigweed; [2]) | Redroot pigweed plant response rating (0 to 10 scale) (pigweed; [3]) | Redroot pigweed plant response rating (pigweed; [4]) | Redroot pigweed plant response rating (pigweed; [5]) | Redroot pigweed plant response rating (pigweed; [6]) | Plant response rating, Redroot pigweed (pigweed; [7]) | Redroot pigweed plant response rating (pigweed; [8]) | Rape plant response rating (rape; [1]) | Rape plant response rating (rape; [2]) | Rape plant response rating (0 to 10 scale) (rape; [3]) | Rape plant response rating (rape; [4]) | Rape plant response rating (rape; [5]) | Rape plant response rating (rape; [6]) | Plant response rating, Rape (rape; [7]) | Rape plant response rating (rape; [8]) | Soybean plant response rating (soybean; [1]) | Soybean plant response rating (soybean; [2]) | Soybean plant response rating (0 to 10 scale) (soybean; [3]) | Soybean plant response rating (soybean; [4]) | Soybean plant response rating (soybean; [5]) | Soybean plant response rating (soybean; [6]) | Plant response rating, Soybean (soybean; [7]) | Soybean plant response rating (soybean; [8]) | Sugarbeets plant response rating (sugar beet; [1]) | Sugarbeets plant response rating (sugar beet; [2]) | Sugarbeets plant response rating (0 to 10 scale) (sugar beet; [3]) | Sugarbeets plant response rating (sugar beet; [4]) | Sugarbeets plant response rating (sugar beet; [5]) | Sugarbeets plant response rating (sugar beet; [6]) | Plant response rating, Sugarbeets (sugar beet; [7]) | Sugarbeets plant response rating (sugar beet; [8]) | Velvetleaf plant response rating (velvetleaf; [1]) | Velvetleaf plant response rating (velvetleaf; [2]) | Velvetleaf plant response rating (0 to 10 scale) (velvetleaf; [3]) | Velvetleaf plant response rating (velvetleaf; [4]) | Velvetleaf plant response rating (velvetleaf; [5]) | Velvetleaf plant response rating (velvetleaf; [6]) | Plant response rating, Velvetleaf (velvetleaf; [7]) | Velvetleaf plant response rating (velvetleaf; [8]) | Wheat plant response rating (wheat; [1]) | Wheat plant response rating (wheat; [2]) | Wheat plant response rating (0 to 10 scale) (wheat; [3]) | Wheat plant response rating (wheat; [4]) | Wheat plant response rating (wheat; [5]) | Wheat plant response rating (wheat; [6]) | Plant response rating, Wheat (wheat; [7]) | Wheat plant response rating (wheat; [8]) | Wild oats plant response rating (wild oat; [1]) | Wild oats plant response rating (wild oat; [2]) | Wild oats plant response rating (0 to 10 scale) (wild oat; [3]) | Wild oats plant response rating (wild oat; [4]) | Wild oats plant response rating (wild oat; [5]) | Wild oats plant response rating (wild oat; [6]) | Plant response rating, Wild oats (wild oat; [7]) | Wild oats plant response rating (wild oat; [8]) | Nutsedge plant response rating (purple nutsedge; [1]) | Nutsedge plant response rating (purple nutsedge; [2]) | Nutsedge plant response rating (0 to 10 scale) (purple nutsedge; [3]) | Nutsedge plant response rating (purple nutsedge; [4]) | Nutsedge plant response rating (purple nutsedge; [5]) | Nutsedge plant response rating (purple nutsedge; [6]) | Plant response rating, Nutsedge (purple nutsedge; [7]) | Nutsedge plant response rating (purple nutsedge; [8]) | Rice plant response rating (rice; [9]) | Plant response rating, Rice (rice; [10]) | Rice plant response rating (rice; [11]) | S. Flatsedge plant response rating (smallflower flatsedge; [9]) | Plant response rating, S. Flatsedge (smallflower flatsedge; [10]) | S. Flatsedge plant response rating (smallflower flatsedge; [11]) | Ducksalad plant response rating (duck salad; [9]) | Plant response rating, Ducksalad (duck salad; [10]) | Ducksalad plant response rating (duck salad; [11])
8: Giant foxtail plant response rating (giant foxtail; [5])

Source: US6737383B1, “Herbicidal oxadiazolidines” (priority 1999, dated 2004)
